Reference: patent US8673886B2, “Use of nifuratel to treat infections caused by Atopobium species” (Polichem SA, priority 2009, dated 2014)
Values after ≈ are worked out from the molar mass of the structure shown. Like-named read-outs stand apart in the source and are kept apart here.

Tested on: Atopobium vaginae
Experiment: MIC determination on Brucella agar, susceptibility of Atopobium vaginae strains
Type: cell-based
Details: for MIC: Fannyhessea vaginae
[1] = all tested strains of Atopobium vaginae

SMILES | MIC [µg/mL] | MIC (CCUG42099) [µg/mL] | MIC (CCUG43049) [µg/mL] | MIC (CCUG44061) [µg/mL] | MIC (CCUG44116) [µg/mL] | MIC (CCUG44125) [µg/mL] | MIC (CCUG44156) [µg/mL] | MIC (CCUG44258) [µg/mL] | MIC (CCUG48515) [µg/mL] | susceptibility of Atopobium to the agent (conclusion from MIC) [1] | MIC (CCUG43049, Atopobium vaginae strain CCUG 43049, Brucella agar, anaerobic, read-out: MIC) [µg/mL] | MIC (CCUG44061, Atopobium vaginae strain CCUG 44061, Brucella agar, anaerobic, read-out: MIC) [µg/mL] | MIC (CCUG44116, Atopobium vaginae strain CCUG 44116, Brucella agar, anaerobic, read-out: MIC) [µg/mL] | MIC (CCUG44125, Atopobium vaginae strain CCUG 44125, Brucella agar, anaerobic, read-out: MIC) [µg/mL] | MIC (CCUG44156, Atopobium vaginae strain CCUG 44156, Brucella agar, anaerobic, read-out: MIC) [µg/mL] | MIC (CCUG44258, Atopobium vaginae strain CCUG 44258, Brucella agar, anaerobic, read-out: MIC) [µg/mL] | MIC (CCUG48515, Atopobium vaginae strain CCUG 48515, Brucella agar, anaerobic, read-out: MIC) [µg/mL] | MICs (range over all strains) [1] [µg/mL]
CSCC1CN(/N=C/c2ccc([N+](=O)[O-])o2)C(=O)O1 (stereo not shown) [Nifuratel, nifuratel] | 1 (≈ 3.51 µM) | 0.5 (≈ 1.75 µM) | 0.25 (≈ 0.876 µM) | 1 (≈ 3.51 µM) | 0.5 (≈ 1.75 µM) | 0.25 (≈ 0.876 µM) | 0.125 (≈ 0.438 µM) | 0.5 (≈ 1.75 µM) | 0.5 (≈ 1.75 µM) | sensitive | – | – | – | – | – | – | – | –
Cc1ncc([N+](=O)[O-])n1CCO [Metronidazole, metronidazole] | – | – | – | – | – | – | – | – | – | resistant | 16 (≈ 93.5 µM) | 64 (≈ 374 µM) | 32 (≈ 187 µM) | 16 (≈ 93.5 µM) | 8 (≈ 46.7 µM) | 32 (≈ 187 µM) | 32 (≈ 187 µM) | 8 to 256
